# US7247734B2 (Vernalis (Cambridge) Limited, priority 2001, dated 2007)
# Experiments:
# yeast HSP90 = molecular target: T1, yeast HSP90 (Saccharomyces cerevisiae, UniProt P02829); test: Malachite green HSP90 ATPase assay; format: biochemical; conditions: activity range, ATPase assay; read-out: ATPase IC50
# T1 construct: made in house; host or cells: E. coli
# Excerpt: Two methods have been developed to measure the intrinsic ATPase activity of HSP90, using yeast HSP90 as a model system. The first method utilises a regenerating coupled enzyme assay. The second assay, based on the use of malachite green for the measurement of inorganic phosphate, was designed for high throughput screening (HTS) to identify novel HSP90 inhibitor drug candidates.
# Colorimetric assays for the determination of phosphate, based on the formation of a phosphomolybdate complex, can be carried out in a few steps with inexpensive reagents and are well suited to the automation required for high throughput screening (see, e.g., Cogan et al., 1999). Enzymes that release inorganic phosphate are assayed using the reaction of the cationic dye, malachite green, with the a complex formed by a reaction of the inorganic phosphate with molybdate to generate a blue-green colour with an absorbance maximum at 610 nm (see, e.g., Baykov et al., 1988; Harder et al., 1994; Maehama et al., 2000). The method has been used in both high throughput (see, e.g., Rumsfeld et al., 2000) and ultra-high throughput screening formats (see, e.g., Layery et al., 2001) for a variety of non-HSP90 ATPases. However, this method is complicated by the non-enzymatic hydrolysis of ATP in the presence of acidic malachite green reagent, causing an increase in colour (see, e.g., Chan et al., 1986; Henkel et al., 1988). This process is mediated by molybdate and can be overcome by the addition of sodium citrate immediately after the reagent (see, e.g., Lanzetta et al., 1979; Schirmer et al., 1998; Baginski et al., 1975). This modification has been adapted to the 96-well microtitre plate assay previously described for other ATPases (see, e.g., Lanzetta et al., 1979) to produce the following protocol for HSP90 ATPase, which is suitable for high throughput screening.
# Chemicals are of the highest purity commercially available and all aqueous solutions are made up in AR water. Because of the need to minimise contamination with inorganic phosphate, precautions should be taken with solutions and apparatus used in the assays. Glassware and pH meters are rinsed with double distilled or deionised water before use and, wherever possible, plastic ware should be used. Gloves are worn for all procedures. • (1) Immulon 96-well (Thermo Labsystems, Basingstoke, UK) or Cliniplate 384-well flat-bottomed polystyrene multiwell plates (Thermo Labsystems). • (2) Assay buffer of (a) 100 mM Tris-HCl, pH 7.4, (b) 20 mM KCl, (c) 6 mM MgCl2. Stored at 4° C. • (3) 0.0812% (w/v) malachite green (M 9636, Sigma Aldrich Ltd., Poole, UK). Stored at room temperature. • (4) 2.32% (w/v) polyvinyl alcohol USP (P 1097, Sigma Aldrich Ltd, Poole, UK) in boiling water (see Comment 1), allowed to cool, and stored at room temperature. • (5) 5.72% (w/v) ammonium molybdate in 6 M hydrochloric acid. Stored at room temperature. • (6) 34% (w/v) sodium citrate. Stored at room temperature. • (7) ATP, disodium salt, special quality (519979, Boehringer Mannheim, Lewes, UK). Stored at 4° C. • (8) E. coli expressed yeast HSP90 protein, purified >95% (see, e.g., Panaretou et al., 1998) and stored at −80° C. as 10 μl aliquots containing 0.5 mg of protein. Method
# The following protocol was used: • (1) On the day of use, prepare the malachite green reagent from the stock solutions. Mix (a) 2 parts of malachite green, (b) 1 part of polyvinyl alcohol, (c) 1 part of ammonium molybdate, and (d) 2 parts of water. Initially, the reagent is a dark brown colour, but after standing at room temperature for about 2 h, this becomes a golden yellow colour and is ready for use. • (2) For the high throughput screening assays, the test compounds are dissolved at 200 μM in 2.0% DMSO and contained in daughter plates derived from the chemical libraries. Transfer 5 μl of each sample from the daughter plate to each well of the assay plate using automated equipment (see Comment 3). This represents a final concentration in the well of 40 μM.
# HCT116 cells = test: Cellular protein by BCA assay after compound exposure (ELISA plates); format: cell-based, human; conditions: HCT116, 1 μM compound
# Experimental: Incubate at 37° for 30 min. • (6) Wash plates twice in PBS using an automated washer (Wellwash 5000 ten plate stacker-washer or Wellwash Ascent single plate washer, Thermo Labsystems, Basingstoke, UK). • (7) Block the plates by addition of blocking solution (100 μl) and incubate for 30 min. • (8) Add 100 μl primary antibody diluted to 0.95 μg/ml in PBS to each well and incubate plate for 1.5 h. Wash plates once with DELFIA® wash solution. • (9) Add 100 μl Europium labelled anti-mouse IgG diluted in DELFIA® assay buffer to 75 ng/ml and incubate for 1 hour. Wash plates once with DELFIA® wash solution as before. • (10) Add 100 μl DELFIA® enhancement solution to each well. • (11) Measure the fluorescence (615 nm) in Victor 2 1420 multilabel counter (Perkin Elmer Life Sciences, Milton Keynes, UK) using time-resolved measurement mode. • (12) Wash plates once with PBS and measure protein concentration by the addition of 200 μl BCA reagent to each well, shake for 1–2 min and incubate for 30 mins at 37° C. Read absorption at 570 nm. • (13) Express ELISA results by normalising to protein in the well (Eu counts (cpm) divided by OD@ 570 nm). Compare the effect of HSP90 inhibitors on HSP70 expression with DMSO treated controls. Comments • (1) Cells plated into 96 well plates are incubated in a plastic box to reduce evaporation from the outside wells. In addition, ELISA incubation steps are carried out in a 37° C. laboratory incubator and in a moist environment e.g., plastic box lined with damp tissue paper. • (2) All additions to the microtitre plate can be achieved using a multichannel pipette or for larger numbers of plates an automated dispenser such as a Multidrop (Thermo Labsytems, Basingstoke, UK). • (3) For convenience, if the effects of compounds are being studied at several time points the ELISA can be carried out in batches, plates being stored (in a container) at 4° C. following the fixation step. In this case the plates are washed only once following fixation and again immediately before the first ELISA step (step 6 above). In addition all the plates can be stored for subsequent protein estimation. • (4) Reproducibility of both the measured Europium counts and the protein measurements was between 10–15% (CV). • (5) DELFIA® reagents (see, e.g., Hemmila and Webb, 1997) have been routinely used in cell-based ELISAs. This endpoint provides high sensitivity and the time-resolved measurements reduce interference from non-specific fluorescence. However, it is also possible to use a horse radish peroxidase second antibody conjugate and either a calorimetric (e.g., tetramethylbenzidine) or chemiluminescent reagent (e.g., ECL reagent (Amersham Pharmacia Biotech, Little Chalfont, Bucks, UK) for endpoint measurement. • (6) It is recommended that a blank consisting of second-antibody only (i.e., no first antibody) together with an appropriate first antibody control (e.g., isotype matched IgG) are included in assays during the process of optimising reagent concentrations. Growth Inhibition Assay
# The effect of various compounds of the present invention on the expression of the molecular marker HSP70 was determined using the cell-based ELISA and a specific monoclonal antibody to HSP70 in HCT116 cells, as described above. Cellular protein following compound exposure was determined using BCA assay as described in the method.
# [1] = test system: HCT116 human colon tumour cells; test: 96 h growth inhibition assay (SRB), HCT116; format: cell-based; conditions: Homo sapiens, HCT-116; HCT116, 96 h
# Experimental: (§1) The growth inhibition assay employed was based on that described previously (Kelland et al., 1993). HCT116 and HT29 human colon tumour cells (American Tissue Culture Collection) were seeded into 96-well tissue culture plates (approximately 1600–2000 cells per well) and allowed to attach for 36 hours. Eight wells were treated with a single concentration from a range of compound concentrations and incubated for 96 hours. Cells were fixed using ice cold 10% trichloroacetic acid (TCA). Plates were then washed five times with water, air dried, and stained with 0.4% sulphorhodamine B (SRB) in 1% acetic acid for 10 minutes. The SRB stain was solubilised in 10 mM Tris-HCl and the absorbance measured at 540 nm using a Titertek Multiscan MCC/340 MKII plate reader (Flow Laboratories, IEC, Basingstoke, N.H.). The absorbance values correspond to total protein content and are used as a measure of cell growth.
# HSP70 in HCT116 cells = test: Cell-based ELISA for HSP70 expression; set-up: species or system human; conditions: HCT116, 1 μM compound
# Excerpt: Cell-based ELISA methods (see, e.g., Stockwell et al., 1999; Versteeg et al., 2000) offer several advantages for evaluating the pharmacodynamic effects of novel mechanism-based inhibitors and may be the method of choice for comparing inhibitors that are identified during the iterative process of lead identification and optimisation. The technique can be used to rapidly rank the effectiveness of compounds as well as to investigate the molecular mechanisms of their action. The increased sample throughput possible with ELISA means that compounds can be simultaneously studied in multiple replicates at different doses and exposure times. […] The assays are carried out directly on cells grown and treated in microtitre plates, thereby removing the necessity for preparing cell lysates. ELISA techniques can in theory be applied to any cellular protein or post-translational modification for which an antibody is available and results are at least semi-quantitative.
# Chemicals are of the highest purity commercially available. • (1) Human colon tumour cell lines (e.g., HCT116 and HT29 from American Tissue Culture Collection, ATCC) grown in Dulbecco's modified Eagle's medium (DMEM) (CSSD, Institute of Cancer Research, London, UK) supplemented with […] glucose, 10% foetal bovine serum (FBS), 200 mM L-glutamine, and 5 ml non-essential amino acids in a humidified atmosphere of 5% CO2 at 37° C. • (2) 96 well Falcon clear microtitre tissue culture plates (BD Labware, Hospital Management and Supplies, Ltd., Northampton, UK). • (3) DMSO diluted in dH2O (8%). • (4) HSP90 inhibitors at required concentration dissolved in DMSO. • (5) Fixing solution (0.25% glutaraldehyde, 3% paraformaldehyde and 0.25% Triton-X 100) (all from Sigma Aldrich Ltd, Poole, UK). • (6) Blocking solution (5% dried milk (Marvel) in PBS) prepared daily. • (7) Anti HSP70 monoclonal antibody (SPA 810, Bioquote, York, UK). • (8) DELFIA® wash buffer, enhancement solution, assay buffer and Europium labelled anti-mouse IgG (1244–1330) (PerkinElmer Life Sciences, Milton Keynes, UK). • (9) BCA protein assay reagents (Perbio Science UK Ltd., Chester, UK). Method
# Incubate at 37° for 30 min. • (6) Wash plates twice in PBS using an automated washer (Wellwash 5000 ten plate stacker-washer or Wellwash Ascent single plate washer, Thermo Labsystems, Basingstoke, UK). • (7) Block the plates by addition of blocking solution (100 μl) and incubate for 30 min. • (8) Add 100 μl primary antibody diluted to 0.95 μg/ml in PBS to each well and incubate plate for 1.5 h. Wash plates once with DELFIA® wash solution. • (9) Add 100 μl Europium labelled anti-mouse IgG diluted in DELFIA® assay buffer to 75 ng/ml and incubate for 1 hour. Wash plates once with DELFIA® wash solution as before. • (10) Add 100 μl DELFIA® enhancement solution to each well. • (11) Measure the fluorescence (615 nm) in Victor 2 1420 multilabel counter (Perkin Elmer Life Sciences, Milton Keynes, UK) using time-resolved measurement mode. • (12) Wash plates once with PBS and measure protein concentration by the addition of 200 μl BCA reagent to each well, shake for 1–2 min and incubate for 30 mins at 37° C. Read absorption at 570 nm. • (13) Express ELISA results by normalising to protein in the well (Eu counts (cpm) divided by OD@ 570 nm). Compare the effect of HSP90 inhibitors on HSP70 expression with DMSO treated controls. Comments • (1) Cells plated into 96 well plates are incubated in a plastic box to reduce evaporation from the outside wells. […]
# [2] = test system: HT29 human colon tumour cells; test: 96 h growth inhibition assay (SRB), HT29; format: cell-based; conditions: Homo sapiens, HT-29; HT29, 96 h
# Experimental: as §1
# T1 sequence (P02829 whole entry, looked up): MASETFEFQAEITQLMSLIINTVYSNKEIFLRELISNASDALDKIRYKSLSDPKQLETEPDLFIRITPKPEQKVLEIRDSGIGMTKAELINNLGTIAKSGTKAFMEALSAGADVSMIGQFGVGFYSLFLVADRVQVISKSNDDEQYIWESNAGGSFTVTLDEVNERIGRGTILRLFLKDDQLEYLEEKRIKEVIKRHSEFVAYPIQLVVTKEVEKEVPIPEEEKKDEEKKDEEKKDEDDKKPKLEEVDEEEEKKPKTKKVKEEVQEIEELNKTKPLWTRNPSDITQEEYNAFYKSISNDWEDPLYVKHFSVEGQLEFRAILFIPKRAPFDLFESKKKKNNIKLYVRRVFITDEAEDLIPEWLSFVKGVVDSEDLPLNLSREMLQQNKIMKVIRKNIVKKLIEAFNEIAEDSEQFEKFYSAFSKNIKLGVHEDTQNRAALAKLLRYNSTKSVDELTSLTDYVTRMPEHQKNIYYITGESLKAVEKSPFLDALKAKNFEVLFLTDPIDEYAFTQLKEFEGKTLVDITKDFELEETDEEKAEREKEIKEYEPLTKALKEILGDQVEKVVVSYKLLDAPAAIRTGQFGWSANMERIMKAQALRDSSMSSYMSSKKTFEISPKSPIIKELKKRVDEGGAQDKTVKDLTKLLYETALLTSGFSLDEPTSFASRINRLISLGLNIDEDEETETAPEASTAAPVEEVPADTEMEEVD
IC50 (yeast HSP90),SMILES,other results
< 50 µM,Oc1cc(O)c(-c2n[nH]cc2-c2ccncc2)cc1Cl [Example 175],
< 50 µM,Cc1nc2cc(-c3c[nH]nc3-c3cc(Cl)c(O)cc3O)ccc2s1 [Example 176],
< 50 µM,CNC(=O)c1ccc(-c2c[nH]nc2-c2cc(Cl)c(O)cc2O)cc1 [Example 180],
< 50 µM,NC(=O)c1ccc(-c2c[nH]nc2-c2cc(Cl)c(O)cc2O)cc1 [Example 181],
< 50 µM,O=C(O)c1ccc(-c2c[nH]nc2-c2cc(Cl)c(O)cc2O)cc1 [Example 182],

# Second part, the compound before the results:
SMILES,IC50 (yeast HSP90),other results
Oc1cc(O)c(-c2n[nH]cc2-c2cncnc2)cc1Cl [Example 177],< 50 µM,
COc1ccc(-c2c(C)n[nH]c2-c2cc(C(=O)NN)c(O)cc2O)cc1 [Example 178],> 50 µM,
"COc1ccc(-c2c(-c3cc(Cl)c(O)cc3O)n[nH]c2Br)cc1 [Example 179, 4-[5-Bromo-4-(4-methoxy-phenyl)-1H-pyrazol-3-yl]-6-chloro-benzene-1,3-diol]",< 50 µM,
COc1ccc(-c2c(-c3ccc(CO)cc3O)n[nH]c2C)cc1 [Example 183],> 50 µM,
"COC1=C2C[C@@H](C)C[C@H](OC)[C@H](O)[C@@H](C)/C=C(\C)[C@H](OC(N)=O)[C@@H](OC)/C=C\C=C(/C)C(=O)NC(=CC1=O)C2=O [Geldanamycin, geldanamycin, reference compound]",,Cellular Protein (% DMSO controls) (HCT116 cells; (48 h)): 46.3%; Cellular Protein (% DMSO controls) (HCT116 cells; (time not given)): 75.3%; IC50 [1]: 0.07 µM; % increase in HSP70 (Normalised Europium Counts compared to DMSO controls) (HSP70 in HCT116 cells; (48 h)): 270%; % increase in HSP70 (Normalised Europium Counts compared to DMSO controls) (HSP70 in HCT116 cells; (time not given)): 169%; IC50 [2]: 0.05 µM
